Like-named read-outs stand apart in the source and are kept apart here. Marks after values point to notes of the source that are not given here.
Experiments:
Experiment in all cases: Drug cytotoxicity testing (viable cell count, trypan blue exclusion, cell growth inhibition)
Format in all cases: cell-based
[1] = system: Human Breast Adenocarcinoma Cell Line MDA-MB-231; details: for IC50 / inhibition at 0.1 µM / inhibition at 0.01 µM / inhibition at 0.001 µM: Homo sapiens; for IC50: calculated from three concentrations, read-out: IC50 mol/L (a); for inhibition at 0.1 µM / inhibition at 0.01 µM / inhibition at 0.001 µM: read-out: Cell Growth Inhibition, %
Outline: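 A549 cells (10 × 10^3/well) and MDA-MB-231 cells (12 × 10^3/well) were left to adhere for 24 h, then exposed to drugs in medium with 5% FBS for 2 days. Viable cells were counted by trypan blue exclusion after trypsinization. Growth inhibition (%) = (control − test)/control × 100, from three determinations in six replicates each.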

[2] = system: Human Lung Carcinoma Cell Line A549
[3] = system: Human Ovary Adenocarcinoma Cell Line SKOV-3; details: alone or in formulation at molar ratio 1:6
Description: (§1) MDA-MB-231 cells were propagated in MEM culture medium with 2 mM L-glutamine, 10% heat-inactivated fetal bovine serum (FBS) and antibiotics. DU 145 cells were cultured in MEM culture medium containing 2 mM L-glutamine, 1 mM sodium pyruvate, 10% FBS and antibiotics. SKOV-3 cells were cultured in McCoy's 5A culture medium, supplemented with 1,5 mM L-glutamine, 10% FBS and antibiotics. A549 cells were cultured in Ham's F-12 culture medium with 1 mM L-glutamine, 10% FBS and antibiotics. All media and supplements were purchased from Sigma-Aldrich (St.Louis, MO, USA). Cell propagation of all lines was carried out in Falcon™ 25 cm^2 cultivation flasks (Becton Dickinson Labware).
(§2) Drug cytotoxicity testing was carried out with using Falcon™ 96-well cultivation plates for adherent cells (Becton Dickinson Labware). These plates were seeded by cells either at 12 × 10^3 MDA-MB-231 cells/well, or at 12 × 10^3 DU 145 cells/well, or at 14 × 10^3 SKOV-3 cells/well, or at 10 × 10^3 A549 cells/well in a volume of 200 µL/well.
(§3) The cell cultures in cultivation plates were allowed to adhere for 24 hour of incubation. On day 1 after cell seeding, 2 µL solutions of the drugs to be tested in medium with 5% FBS was added to the cultures. In the control cultures, 2 µL of medium with 5% FBS was added as solvent control. The cells were incubated for 2 consecutive days. At the end of the incubation period adherent cells were detached by trypsinization and the number of viable cells was counted using trypan blue exclusion test and a hemocytometer. All data were derived from an average of three determinations each in six replicates. The results were expressed as mean cell number ± SE and the differences between control and test series evaluated by means of Student's t-test. The drug cytotoxicity was evaluated based on the extent of cell growth inhibition. The cell growth inhibition of the tested drugs was calculated as follows: Cell growth inhibition,% = (Control-TestSeries)/(Control) × 100 [formula]

[4] = system: Human Prostate Carcinoma Cell Line DU 145; details: alone or in formulation at molar ratio 1:6
Description: as §1, §2, §3

[5] = cytotoxic drug 10^-7 mol/L (100 nM), alone or in formulation at molar ratio 1:6, working solutions in medium with 5% FBS, listed as docetaxel, trihydrate
[6] = cytotoxic drug 10^-7 mol/L (100 nM), alone or in formulation at molar ratio 1:6, working solutions in medium with 5% FBS, trihydrate
[7] = cytotoxic drug 10^-7 mol/L (100 nM), alone or in formulation at molar ratio 1:6, working solutions in medium with 5% FBS, trihydrate, 0.1 µM
[8] = cytotoxic drug 10^-8 mol/L, alone or in formulation at molar ratio 1:6, working solutions in medium with 5% FBS
[9] = cytotoxic drug 10^-9 mol/L, alone or in formulation at molar ratio 1:6, working solutions in medium with 5% FBS
[10] = cytotoxic drug alone 10^-7 mol/L, average of positive controls in medium with 5% FBS, normal saline and saline with 2,3 mM CaCl2
[11] = cytotoxic drug alone 10^-8 mol/L, average of positive controls in medium with 5% FBS, normal saline and saline with 2,3 mM CaCl2
[12] = cytotoxic drug alone 10^-9 mol/L, average of positive controls in medium with 5% FBS, normal saline and saline with 2,3 mM CaCl2
[13] = cytotoxic drug 10^-7 mol/L (100 nM), working solutions in medium with 5% FBS, listed as docetaxel, trihydrate
[14] = cytotoxic drug 10^-7 mol/L (100 nM), working solutions in medium with 5% FBS, trihydrate
[15] = cytotoxic drug 10^-7 mol/L (100 nM), working solutions in medium with 5% FBS, trihydrate, 0.1 µM
[16] = cytotoxic drug 10^-8 mol/L, working solutions in medium with 5% FBS
[17] = cytotoxic drug 10^-9 mol/L, working solutions in medium with 5% FBS

CC(=O)O[C@@]12CO[C@@H]1C[C@H](O)[C@@]1(C)C(=O)[C@H](O)C3=C(C)[C@@H](OC(=O)[C@H](O)[C@@H](NC(=O)OC(C)(C)C)c4ccccc4)C[C@@](O)([C@@H](OC(=O)c4ccccc4)[C@H]21)C3(C)C [Docetaxel, (2R,3S)-N-carboxy-3-phenylisoserine, N-tert-butyl ester, 13-ester with 5β-20-epoxy-1,2α ,4,7β,10β,13α -hexahydroxytax-11-en-9-one 4-acetate 2-benzoate, trihydrate]
IC50 ([1]; MDA-MB-231, as concentration of cytotoxic drug, alone or in formulation at molar ratio 1:6, medium with 5% FBS): 3.6 nM | inhibition at 0.1 µM ([1]; MDA-MB-231, cytotoxic drug 10^-7 mol/L (100 nM), alone or in formulation at molar ratio 1:6, working solutions in medium with 5% FBS): 73.3% | inhibition at 0.01 µM ([1]; MDA-MB-231, cytotoxic drug 10^-8 mol/L, alone or in formulation at molar ratio 1:6, working solutions in medium with 5% FBS): 58.1% | inhibition at 0.001 µM ([1]; MDA-MB-231, cytotoxic drug 10^-9 mol/L, alone or in formulation at molar ratio 1:6, working solutions in medium with 5% FBS): 38.7% | inhibition at 0.1 µM ([1]; MDA-MB-231, cytotoxic drug alone 10^-7 mol/L, average of positive controls in medium with 5% FBS, normal saline and saline with 2,3 mM CaCl2): 76.5% | inhibition at 0.01 µM ([1]; MDA-MB-231, cytotoxic drug alone 10^-8 mol/L, average of positive controls in medium with 5% FBS, normal saline and saline with 2,3 mM CaCl2): 56.3% | inhibition at 0.001 µM ([1]; MDA-MB-231, cytotoxic drug alone 10^-9 mol/L, average of positive controls in medium with 5% FBS, normal saline and saline with 2,3 mM CaCl2): 36.4% | IC50 ([1]; MDA-MB-231, cytotoxic drug alone, average of positive controls): 4.6 nM | Tumor Cell Number, × 10^3 [1, 5]: 15.4 ± 1.02 × 10^3 | Tumor Cell Number, × 10^3 [1, 6]: 13.7 ± 1.03 × 10^3 | Cell Growth Inhibition, % [1, 7]: 75.4* % | Tumor Cell Number, × 10^3 [1, 8]: 23.4 ± 2.15 × 10^3 | Tumor Cell Number, × 10^3 [1, 9]: 34.2 ± 2.28 × 10^3 | Tumor Cell Number, × 10^3 [1, 10]: 13.6±0.72 × 10^3 | Tumor Cell Number, × 10^3 [1, 11]: 25.3±1.18 × 10^3 | Tumor Cell Number, × 10^3 [1, 12]: 36.8±1.70 × 10^3 | inhibition at 0.1 µM ([2]; Homo sapiens, A549, cytotoxic drug 10^-7 mol/L (100 nM), alone or in formulation at molar ratio 1:6, working solutions in medium with 5% FBS): 80.3% | inhibition at 0.01 µM ([2]; Homo sapiens, A549, cytotoxic drug 10^-8 mol/L, alone or in formulation at molar ratio 1:6, working solutions in medium with 5% FBS): 71.4% | inhibition at 0.001 µM ([2]; Homo sapiens, A549, cytotoxic drug 10^-9 mol/L, alone or in formulation at molar ratio 1:6, working solutions in medium with 5% FBS): 37.5% | inhibition at 0.1 µM ([2]; Homo sapiens, A549, cytotoxic drug alone 10^-7 mol/L, average of positive controls in medium with 5% FBS, normal saline and saline with 2,3 mM CaCl2): 80.3% | inhibition at 0.01 µM ([2]; Homo sapiens, A549, cytotoxic drug alone 10^-8 mol/L, average of positive controls in medium with 5% FBS, normal saline and saline with 2,3 mM CaCl2): 71% | inhibition at 0.001 µM ([2]; Homo sapiens, A549, cytotoxic drug alone 10^-9 mol/L, average of positive controls in medium with 5% FBS, normal saline and saline with 2,3 mM CaCl2): 36% | IC50 ([2]; Homo sapiens, A549, as concentration of cytotoxic drug, alone or in formulation at molar ratio 1:6, medium with 5% FBS, calculated from three concentrations, read-out: IC50 mol/L (a)): 2.2 nM | Tumor Cell Number, × 10^3 [2, 5]: 10.6 ± 0.72 × 10^3 | Tumor Cell Number, × 10^3 [2, 6]: 10.5 ± 0.97 × 10^3 | Cell Growth Inhibition, % [2, 7]: 80.8* % | Tumor Cell Number, × 10^3 [2, 8]: 15.6 ± 0.49 × 10^3 | Tumor Cell Number, × 10^3 [2, 9]: 34.1 ± 2.07 × 10^3 | Tumor Cell Number, × 10^3 [2, 10]: 11.0±0.73 × 10^3 | Tumor Cell Number, × 10^3 [2, 11]: 16.2±0.75 × 10^3 | Tumor Cell Number, × 10^3 [2, 12]: 35.7±1.51 × 10^3 | inhibition at 0.1 µM ([3]; Homo sapiens, SK-OV-3, cytotoxic drug 10^-7 mol/L (100 nM), working solutions in medium with 5% FBS): 68.7% | inhibition at 0.01 µM ([3]; Homo sapiens, SK-OV-3, cytotoxic drug 10^-8 mol/L, working solutions in medium with 5% FBS): 55.5% | inhibition at 0.001 µM ([3]; Homo sapiens, SK-OV-3, cytotoxic drug 10^-9 mol/L, working solutions in medium with 5% FBS): 34.2% | IC50 ([3]; Homo sapiens, SK-OV-3, as concentration of cytotoxic drug, medium with 5% FBS, calculated from three concentrations, read-out: IC50 mol/L (a)): 5.2 nM | Tumor Cell Number, × 10^3 [3, 13]: 16.1 ± 0.94 × 10^3 | Tumor Cell Number, × 10^3 [3, 14]: 16.8 ± 0.80 × 10^3 | Cell Growth Inhibition, % [3, 15]: 67.8* % | Tumor Cell Number, × 10^3 [3, 16]: 23.2 ± 2.19 × 10^3 | Tumor Cell Number, × 10^3 [3, 17]: 34.3 ± 2.01 × 10^3 | inhibition at 0.1 µM ([4]; Homo sapiens, DU-145, cytotoxic drug 10^-7 mol/L (100 nM), working solutions in medium with 5% FBS): 74.5% | inhibition at 0.01 µM ([4]; Homo sapiens, DU-145, cytotoxic drug 10^-8 mol/L, working solutions in medium with 5% FBS): 51.8% | inhibition at 0.001 µM ([4]; Homo sapiens, DU-145, cytotoxic drug 10^-9 mol/L, working solutions in medium with 5% FBS): 34.7% | IC50 ([4]; Homo sapiens, DU-145, as concentration of cytotoxic drug, medium with 5% FBS, calculated from three concentrations, read-out: IC50 mol/L (a)): 8 nM | Tumor Cell Number, × 10^3 [4, 13]: 14.2 ± 0.85 × 10^3 | Tumor Cell Number, × 10^3 [4, 14]: 10.8 ± 0.94 × 10^3 | Cell Growth Inhibition, % [4, 15]: 74.0* % | Tumor Cell Number, × 10^3 [4, 16]: 20.0 ± 1.16 × 10^3 | Tumor Cell Number, × 10^3 [4, 17]: 27.1 ± 1.07 × 10^3

Source: patent EP1534672B1, “RETINOL DERIVATIVES, THEIR USE IN THE TREATMENT OF CANCER AND FOR POTENTIATING THE EFFICACY OF OTHER CYTOTOXIC AGENTS” (priority 2002, dated 2004)
